The results in this text go back to patent publication US20250122191A1, “COMPOUNDS AS BCL-2 INHIBITORS” (Fochon Biosciences, Ltd, priority 2021, published 2025).

Structures are written as SMILES.

Series [1] has as its system RS4;11-BCL-2 D103E cells. The series can be described thus: Cell proliferation assay (MTS), RS4;11-BCL-2 D103E engineered cells. The series is classed as cell-based. As to conditions: Homo sapiens, 72 h, read-out: RS4, 11 BCL2-D103E IC50. In a few lines: (§1)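 Proliferation IC50 in RS4;11 lines engineered with BCL-2 mutations, measured by MTS at 490 nm after 72 h (D103E, D103Y) or 120 h (G101V, F104L) compound treatment at 37 °C.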

The subject of series [2] is Toledo cells. The series can be described thus: Cell proliferation assay (MTS), Toledo cells. As to conditions: Homo sapiens, 72 h. In kind it is cell-based. In a few lines: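 Toledo cells (RPMI-1640, 10% FBS) seeded at 30000 cells/well, rested 4 h, then exposed 72 h at 37 °C, 5% CO2 to compound at nine final concentrations, 1.5–10000 nM. Viability by MTS (2 h), absorbance at 490 nm. IC50 from the concentration-response.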

Series [3] in a line: Pharmacokinetics assay in rats. As to conditions: rat, male Sprague-Dawley rats, po, 5 mg/kg, plasma; for Cmax: read-out: Cmax/C0. The series is classed as in vivo. How it is done:
The purpose of this study was to determine the pharmacokinetics of Examples in male Sprague-Dawley rats (Supplied by Beijing Vital River Laboratory Animal Technology Co., Ltd.) following a single intravenous bolus injection at 1 mg/kg and oral gavage (PO) administration at 5 mg/kg.
Animals in Group 1 were administered with Examples by single intravenous bolus injection at 1 mg/kg, which was formulated in 10% DMSO (Sigma, Batch #LPCOS181): 60% PEG400 (Sigma, Batch #MKCH6281): 30% water, pH 5-6 at 1 mg/mL as a solution. Animals in Group 2 were administered with Examples by single oral gavage (PO) administration at 5 mg/kg, which was formulated in 10% DMSO (Sigma, Batch #BCCD6641): 60% PEG400 (Sigma, Batch #MKCL4921): 30% water at 1 mg/mL as a solution. Blood samples were collected at 0.083, 0.25, 0.5, 1, 2, 4, 8, 12 and 24 hours post-dose. Concentrations of Examples in plasma were determined by LC/MS/MS (LC: Waters UPLC; MS: Triple Quad 6500 plus).

The test system of series [4] is RS4;11-BCL-2 F104L cells. The series can be described thus: Cell proliferation assay (MTS), RS4;11-BCL-2 F104L engineered cells. The series is classed as cell-based. As to conditions: Homo sapiens, 120 h, read-out: RS4, 11 BCL2-F104L IC50. In a few lines:
as §1

Series [5] deals with RS4;11-BCL-2 G101V cells. The series is described as follows: Cell proliferation assay (MTS), RS4;11-BCL-2 G101V engineered cells. As to conditions: Homo sapiens, 120 h, read-out: RS4, 11 BCL2-G101V IC50. The series is classed as cell-based. In a few lines:
as §1

As usually defined, the IC50 is the concentration needed to halve the response being measured. As usually defined, the AUC(0-t) is the area under the concentration-time curve up to a stated or last time point. A low value points to low exposure. Usually half-life stands for the time needed for the level to fall by half in the phase considered. Read a low half-life as rapid decline. For `COc1ccc(CN2CCN(C3CC4(CCN(c5ccc(C(=O)NS(=O)(=O)c6cnc(NC[C@H]7CC[C@](C)(O)CC7)c([N+](=O)[O-])c6)c(Oc6cc7c(F)c[nH]c7nc6OC)c5)CC4)C3)[C@H](c3ccccc3C(C)C)C2)cc1` [Example 1, 2-((3 fluoro-6-methoxy-1H pyrrolo[2,3-b]pyridin-5 yl)oxy)-N-((6-((((1r, 4r)-4-hydroxy-4-methylcyclohexyl)methyl)amino)-5-nitropyridin-3-yl)sulfonyl)-4-(2-((R)-2-(2-isopropylphenyl)-4-(4-methoxybenzyl)piperazin-1-yl)-7-azaspiro[3.5]nonan-7-yl)benzamide], the IC50 in series [1] came to 2 nM; in series [2], 1 nM; in series [4], 1 nM; in series [5], 1 nM. Further, the exposure AUC(0-t) in series [3] was determined as 3030 ng·h/mL. The half-life in series [3] is 9.02 h. Besides, in series [3], the Cmax was 227 ng/mL.

As for `COc1cc(CN2CCN(C3CC4(CCN(c5ccc(C(=O)NS(=O)(=O)c6cnc(NC[C@H]7CC[C@](C)(O)CC7)c([N+](=O)[O-])c6)c(Oc6cc7c(F)c[nH]c7nc6OC)c5)CC4)C3)[C@H](c3ccccc3C(C)C)C2)ccc1C1CC1` [Example 5, 4-(2-((R)-4-(4-cyclopropyl-3-methoxybenzyl)-2-(2-isopropylphenyl)piperazin-1-yl)-7-azaspiro[3.5]nonan-7-yl)-2-((3-fluoro-6-methoxy-1H-pyrrolo[2,3-b]pyridin-5-yl)oxy)-N-((6-((((1r,4r)-4-hydroxy-4-methylcyclohexyl)methyl)amino)-5-nitropyridin-3-yl)sulfonyl)benzamide], half-maximal inhibition in series [2] (IC50) required 1 nM. In series [3], the AUC(0-t) turned out to be 2260 ng·h/mL, the half-life is 24.4 h and the Cmax was 37.1 ng/mL. The IC50 in series [4] came to 1 nM. The 50% inhibitory concentration (IC50) in series [5] is 1 nM.

Regarding `COc1nc2[nH]cc(F)c2cc1Oc1cc(N2CCC3(CC2)CC(N2CCN(Cc4ccc(OC)c5oc(C)cc45)C[C@H]2c2ccccc2C(C)C)C3)ccc1C(=O)NS(=O)(=O)c1cnc(NC[C@H]2CC[C@](C)(O)CC2)c([N+](=O)[O-])c1` [Example 13, 2-((3-fluoro-6-methoxy-1H-pyrrolo[2,3-b]pyridin-5-yl)oxy)-N-((6-((((1r,4r)-4-hydroxy-4-methylcyclohexyl)methyl)amino)-5-nitropyridin-3-yl)sulfonyl)-4-(2-((R)-2-(2-isopropylphenyl)-4-((7-methoxy-2-methylbenzofuran-4-yl)methyl)piperazin-1-yl)-7-azaspiro[3.5]nonan-7-yl)benzamide], the IC50 in series [1], in series [2], in series [4] and in series [5] was 1 nM throughout. This compound yielded an exposure AUC(0-t) in series [3] of 1890 ng·h/mL. The same compound gave a half-life in series [3] of 11.3 h. Also, the Cmax in series [3] amounted to 198 ng/mL.

On to `COc1nc2[nH]cc(F)c2cc1Oc1cc(N2CCC3(CC2)CC(N2CCN(Cc4ccc(Cl)cc4)C[C@H]2c2ccccc2C(C)C)C3)ccc1C(=O)NS(=O)(=O)c1cnc(NC[C@H]2CC[C@](C)(O)CC2)c([N+](=O)[O-])c1` [Example 230, 4-(2-((R)-4-(4-chlorobenzyl)-2-(2-isopropylphenyl)piperazin-1-yl)-7-azaspiro[3.5]nonan-7-yl)-2-((3-fluoro-6-methoxy-1H-pyrrolo[2,3-b]pyridin-5-yl)oxy)-N-((6-((((1r,4r)-4-hydroxy-4-methylcyclohexyl)methyl)amino)-5-nitropyridin-3-yl)sulfonyl)benzamide], for which the half-maximal inhibitory concentration (IC50) in series [2], in series [4] and in series [5] was 1 nM each time. The compound also returned an AUC(0-t) in series [3] of 3750 ng·h/mL. Further, in series [3], the half-life was 10.2 h. In addition, the Cmax in series [3] is 329 ng/mL.

As to `COc1nc2[nH]cc(F)c2cc1Oc1cc(N2CCC3(CC2)CC(N2CCN(Cc4ccc(F)cc4)C[C@H]2c2ccccc2C(C)C)C3)ccc1C(=O)NS(=O)(=O)c1cnc(NC[C@H]2CC[C@](C)(O)CC2)c([N+](=O)[O-])c1` [Example 233, 2-((3-fluoro-6-methoxy-1H-pyrrolo[2,3-b]pyridin-5-yl)oxy)-4-(2-((R)-4-(4-fluorobenzyl)-2-(2-isopropylphenyl)piperazin-1-yl)-7-azaspiro[3.5]nonan-7-yl)-N-((6-((((1r,4r)-4-hydroxy-4-methylcyclohexyl)methyl)amino)-5-nitropyridin-3-yl)sulfonyl)benzamide], it took 1 nM to reach half-maximal inhibition in series [2] (IC50). In series [3], the exposure AUC(0-t) was 3920 ng·h/mL, the half-life was 7.36 h and the Cmax turned out to be 439 ng/mL. The IC50 in series [4] turned out to be 1 nM. In addition, in series [5], the IC50 was determined as 1 nM.

`COc1cc(CN2CCN(C3CC4(CCN(c5ccc(C(=O)NS(=O)(=O)c6cnc(NC[C@H]7CC[C@](C)(O)CC7)c([N+](=O)[O-])c6)c(Oc6cc7c(F)c[nH]c7nc6OC)c5)CC4)C3)[C@H](c3ccccc3C(C)C)C2)ccn1` [Example 242, 2-((3-fluoro-6-methoxy-1H-pyrrolo[2,3-b]pyridin-5-yl)oxy)-N-((6-((((1r,4r)-4-hydroxy-4-methylcyclohexyl)methyl)amino)-5-nitropyridin-3-yl)sulfonyl)-4-(2-((R)-2-(2-isopropylphenyl)-4-((2-methoxypyridin-4-yl)methyl)piperazin-1-yl)-7-azaspiro[3.5]nonan-7-yl)benzamide]: the concentration for half-maximal inhibition (IC50) in series [1], in series [2], in series [4] and in series [5] was 1 nM in each case. The compound further registered an area under the curve AUC(0-t) in series [3] of 2760 ng·h/mL. The compound also showed a half-life in series [3] of 7.02 h. Also, the Cmax in series [3] was determined as 272 ng/mL.

Consider `COc1nc2[nH]cc(F)c2cc1Oc1cc(N2CCC3(CC2)CC(N2CCN(Cc4ccc(C5CC5)c(OC)n4)C[C@H]2c2ccccc2C(C)C)C3)ccc1C(=O)NS(=O)(=O)c1cnc(NC[C@H]2CC[C@](C)(O)CC2)c([N+](=O)[O-])c1` [Example 289, 4-(2-((R)-4-((5-cyclopropyl-6-methoxypyridin-2-yl)methyl)-2-(2-isopropylphenyl)piperazin-1-yl)-7-azaspiro[3.5]nonan-7-yl)-2-((3-fluoro-6-methoxy-1H-pyrrolo[2,3-b]pyridin-5-yl)oxy)-N-((6-((((1r,4r)-4-hydroxy-4-methylcyclohexyl)methyl)amino)-5-nitropyridin-3-yl)sulfonyl)benzamide], for which the IC50 was 1 nM in series [1], 1 nM in series [2], 1 nM in series [4] and 2 nM in series [5]. This compound had an exposure AUC(0-t) in series [3] of 3450 ng·h/mL. In series [3], this compound gave a half-life of 8.1 h. Moreover, the Cmax in series [3] amounted to 357 ng/mL.
